Drawing on PubChem BioAssay AID1259407 (Chemical Carcinogenesis Research Information System (CCRIS), 2018), this text covers mutagenic call for 4 compounds.

Active and inactive are the calls of the source. The rule behind the calls is not given here.

The data set relates to CCRIS mutagenicity, Ames/micronucleus/aberration tests. Description: CCRIS mutagenicity studies.
[1] abbreviates: Test System: AMES SALMONELLA TYPHIMURIUM, Strain/Indicator: TA97, Metabolic Activation: NONE, Method: PREINCUBATION
[2] abbreviates: Test System: AMES SALMONELLA TYPHIMURIUM, Strain/Indicator: TA98, Metabolic Activation: NONE, Method: PREINCUBATION
The mark [3] stands for this setting: Test System: AMES SALMONELLA TYPHIMURIUM, Strain/Indicator: TA98, Metabolic Activation: NONE, Method: STANDARD PLATE.
The mark [4] stands for this setting: Test System: AMES SALMONELLA TYPHIMURIUM, Strain/Indicator: TA98, Metabolic Activation: RAT, LIVER, S-9, AROCLOR 1254, Method: STANDARD PLATE.
Where [5] appears, read: Test System: AMES SALMONELLA TYPHIMURIUM, Strain/Indicator: TA100, Metabolic Activation: NONE, Method: PREINCUBATION

As for `NC(N)=S`, the mutagenic call by setting is: (Test System: AMES SALMONELLA TYPHIMURIUM, Strain/Indicator: TA97, Metabolic Activation: HAMSTER, LIVER, S-9, AROCLOR 1254 (10 OR 30%), Method: PREINCUBATION) “inactive; negative”; under setting [1], “inactive; negative”; (Test System: AMES SALMONELLA TYPHIMURIUM, Strain/Indicator: TA97, Metabolic Activation: NONE, Method: STANDARD PLATE) “inactive; negative”; (Test System: AMES SALMONELLA TYPHIMURIUM, Strain/Indicator: TA97, Metabolic Activation: RAT, LIVER, S-9, AROCLOR 1254 (10 OR 30%), Method: PREINCUBATION) “inactive; negative”; (Test System: AMES SALMONELLA TYPHIMURIUM, Strain/Indicator: TA97, Metabolic Activation: RAT, LIVER, S-9, AROCLOR 1254, Method: STANDARD PLATE) “inactive; negative”; (Test System: AMES SALMONELLA TYPHIMURIUM, Strain/Indicator: TA98, Metabolic Activation: HAMSTER, LIVER, S-9, AROCLOR 1254 (10 OR 30%), Method: PREINCUBATION) “inactive; negative”. For the same compound, the mutagenic call runs as follows: under setting [2], “inactive; negative”; under setting [3], “inactive; negative”; (Test System: AMES SALMONELLA TYPHIMURIUM, Strain/Indicator: TA98, Metabolic Activation: RAT LIVER S-9, PHENOBARBITAL AND BETA-NAPHTHOFLAVONE, Method: PREINCUBATION) “inactive; negative”; (Test System: AMES SALMONELLA TYPHIMURIUM, Strain/Indicator: TA98, Metabolic Activation: RAT, LIVER, S-9, AROCLOR 1254 (10 OR 30%), Method: PREINCUBATION) “inactive; negative”; under setting [4], “inactive; negative”; (Test System: AMES SALMONELLA TYPHIMURIUM, Strain/Indicator: TA100, Metabolic Activation: HAMSTER, LIVER, S-9, AROCLOR 1254 (10 OR 30%), Method: PREINCUBATION) “inactive; negative”. For the same compound, the mutagenic call was “inactive; negative” under setting [5]; “inactive; negative” (Test System: AMES SALMONELLA TYPHIMURIUM, Strain/Indicator: TA100, Metabolic Activation: NONE, Method: STANDARD PLATE); “inactive; negative” (Test System: AMES SALMONELLA TYPHIMURIUM, Strain/Indicator: TA100, Metabolic Activation: RAT LIVER S-9, PHENOBARBITAL AND BETA-NAPHTHOFLAVONE, Method: PREINCUBATION); “inactive; negative” (Test System: AMES SALMONELLA TYPHIMURIUM, Strain/Indicator: TA100, Metabolic Activation: RAT, LIVER, S-9, AROCLOR 1254 (10 OR 30%), Method: PREINCUBATION); “inactive; negative” (Test System: AMES SALMONELLA TYPHIMURIUM, Strain/Indicator: TA100, Metabolic Activation: RAT, LIVER, S-9, AROCLOR 1254, Method: STANDARD PLATE); “inactive; negative” (Test System: AMES SALMONELLA TYPHIMURIUM, Strain/Indicator: TA1535, Metabolic Activation: HAMSTER, LIVER, S-9, AROCLOR 1254 (10 OR 30%), Method: PREINCUBATION). Besides, the mutagenic call reads like this: (Test System: AMES SALMONELLA TYPHIMURIUM, Strain/Indicator: TA1535, Metabolic Activation: NONE, Method: PREINCUBATION) “inactive; negative”; (Test System: AMES SALMONELLA TYPHIMURIUM, Strain/Indicator: TA1535, Metabolic Activation: RAT LIVER S-9, PHENOBARBITAL AND BETA-NAPHTHOFLAVONE, Method: PREINCUBATION) “inactive; negative”; (Test System: AMES SALMONELLA TYPHIMURIUM, Strain/Indicator: TA1535, Metabolic Activation: RAT, LIVER, S-9, AROCLOR 1254 (10 OR 30%), Method: PREINCUBATION) “inactive; negative”; (Test System: AMES SALMONELLA TYPHIMURIUM, Strain/Indicator: TA1537, Metabolic Activation: NONE, Method: PREINCUBATION) “inactive; negative”; (Test System: AMES SALMONELLA TYPHIMURIUM, Strain/Indicator: TA1537, Metabolic Activation: RAT LIVER S-9, PHENOBARBITAL AND BETA-NAPHTHOFLAVONE, Method: PREINCUBATION) “inactive; negative”; (Test System: E. COLI, Strain/Indicator: WP2 UVRA, Metabolic Activation: HAMSTER, LIVER, S-9, AROCLOR 1254, Method: STANDARD PLATE) “inactive; negative”. Also, the mutagenic call reads like this: (Test System: E. COLI, Strain/Indicator: WP2 UVRA, Metabolic Activation: HAMSTER, LIVER, S-9, Method: STANDARD PLATE) “inactive; negative”; (Test System: E. COLI, Strain/Indicator: WP2 UVRA, Metabolic Activation: MOUSE, LIVER, S-9, AROCLOR 1254, Method: STANDARD PLATE) “inactive; negative”; (Test System: E. COLI, Strain/Indicator: WP2 UVRA, Metabolic Activation: MOUSE, LIVER, S-9, Method: STANDARD PLATE) “inactive; negative”; (Test System: E. COLI, Strain/Indicator: WP2 UVRA, Metabolic Activation: NONE, Method: STANDARD PLATE) “inactive; negative”; (Test System: E. COLI, Strain/Indicator: WP2 UVRA, Metabolic Activation: RAT, LIVER, S-9, AROCLOR 1254, Method: STANDARD PLATE) “inactive; negative”; (Test System: E. COLI, Strain/Indicator: WP2 UVRA, Metabolic Activation: RAT, LIVER, S-9, Method: STANDARD PLATE) “inactive; negative”. In addition, the mutagenic call by setting is: (Test System: E.COLI, Strain/Indicator: WP2UVRA/PKM101, Metabolic Activation: NONE, Method: PREINCUBATION) “inactive; negative”; (Test System: E.COLI, Strain/Indicator: WP2UVRA/PKM101, Metabolic Activation: RAT LIVER S-9, PHENOBARBITAL AND BETA-NAPHTHOFLAVONE, Method: PREINCUBATION) “inactive; negative”; (Test System: MOUSE LYMPHOMA, Strain/Indicator: L5178Y (TK+/TK-), Metabolic Activation: NONE, Method: SUSPENSION/PLATE) “inactive; negative”.
Regarding `CC[C@@H](C)[C@@H](N)C(=O)OC`, the mutagenic call (End Point: IN VIVO MICRONUCLEUS, Test System: BONE MARROW POLYCHROMATIC ERYTHROCYTES, Species: MOUSE, Strain/Sex: DDY/MALE, Route: IP) was “inactive; negative”.
Take `O=[N+]([O-])c1cnc2c(c1)nc1ccccn12`: the mutagenic call runs as follows: under setting [3], “active; positive”; (Test System: AMES SALMONELLA TYPHIMURIUM, Strain/Indicator: TA98, Metabolic Activation: RAT, LIVER, CYTOSOL, AROCLOR 1254, Method: STANDARD PLATE) “active; positive”; (Test System: AMES SALMONELLA TYPHIMURIUM, Strain/Indicator: TA98, Metabolic Activation: RAT, LIVER, MICROSOMES, AROCLOR 1254, Method: STANDARD PLATE) “active; positive”; under setting [4], “active; positive”.
For `O=c1c2[nH]c3ccccc3c2nnn1/N=C/c1ccc(Cl)cc1`, the mutagenic call under setting [1] was “inactive; negative”; the mutagenic call (Test System: AMES SALMONELLA TYPHIMURIUM, Strain/Indicator: TA97, Metabolic Activation: RAT, LIVER, S-9, AROCLOR 1254 (10%), Method: PREINCUBATION) was “active; positive”; the mutagenic call under setting [2] is “active; positive”; the mutagenic call (Test System: AMES SALMONELLA TYPHIMURIUM, Strain/Indicator: TA98, Metabolic Activation: RAT, LIVER, S-9, AROCLOR 1254 (10%), Method: PREINCUBATION) was “active; positive”; the mutagenic call under setting [5] is “inactive; negative”; the mutagenic call (Test System: AMES SALMONELLA TYPHIMURIUM, Strain/Indicator: TA100, Metabolic Activation: RAT, LIVER, S-9, AROCLOR 1254 (10%), Method: PREINCUBATION) is “active; positive”. Also, the mutagenic call runs as follows: (Test System: AMES SALMONELLA TYPHIMURIUM, Strain/Indicator: TA102, Metabolic Activation: NONE, Method: PREINCUBATION) “inactive; negative”; (Test System: AMES SALMONELLA TYPHIMURIUM, Strain/Indicator: TA102, Metabolic Activation: RAT, LIVER, S-9, AROCLOR 1254 (10%), Method: PREINCUBATION) “inactive; negative”.
